{"source": "ChEMBL document CHEMBL1697692", "about": "“Developing structure-activity relationships for the prediction of hepatotoxicity” (Chem Res Toxicol, 2010)", "data": [{"tested_on": "Hepatotoxicity", "test": "Literature-mined public compounds from Greene et al multi-species hepatotoxicity modelling dataset", "values": [{"smiles": "CCC1(C)CC(=O)NC1=O", "note": "(centres undefined) [ETHOSUXIMIDE]", "Hepatotoxicity": "HH: Evidence of human hepatotoxicity"}, {"smiles": "OCCO", "note": "[ETHYLENE GLYCOL]", "Hepatotoxicity": "AH: Evidence for animal hepatotoxicity but not tested in humans"}, {"smiles": "C#C[C@]1(OC(C)=O)CC[C@H]2[C@@H]3CCC4=C[C@@H](OC(C)=O)CC[C@@H]4[C@H]3CC[C@@]21C", "note": "[ETHYNODIOL DIACETATE]", "Hepatotoxicity": "HH: Evidence of human hepatotoxicity"}, {"smiles": "COc1cc([C@@H]2c3cc4c(cc3[C@@H](O[C@@H]3O[C@@H]5CO[C@@H](C)O[C@H]5[C@H](O)[C@H]3O)[C@H]3COC(=O)[C@H]23)OCO4)cc(OC)c1O", "note": "[ETOPOSIDE]", "Hepatotoxicity": "HH: Evidence of human hepatotoxicity"}, {"smiles": "NC(N)=Nc1nc(CSCCC(N)=NS(N)(=O)=O)cs1", "note": "[FAMOTIDINE]", "Hepatotoxicity": "WE: Weak evidence (<10 case reports) of human hepatotoxicity"}, {"smiles": "NC(=O)OCC(COC(N)=O)c1ccccc1", "note": "[FELBAMATE]", "Hepatotoxicity": "HH: Evidence of human hepatotoxicity"}, {"smiles": "CC(C)OC(=O)C(C)(C)Oc1ccc(C(=O)c2ccc(Cl)cc2)cc1", "note": "[FENOFIBRATE]", "Hepatotoxicity": "HH: Evidence of human hepatotoxicity"}, {"smiles": "CC(C(=O)[O-])c1cccc(Oc2ccccc2)c1.[Na+]", "note": "(centres undefined) [FENOPROFEN SODIUM]", "Hepatotoxicity": "HH: Evidence of human hepatotoxicity"}, {"smiles": "CC(C)(C(=O)O)c1ccc(C(O)CCCN2CCC(C(O)(c3ccccc3)c3ccccc3)CC2)cc1", "note": "(centres undefined) [FEXOFENADINE]", "Hepatotoxicity": "NE: No evidence of hepatotoxicity in any species"}, {"smiles": "O=c1[nH]c(=O)n([C@@H]2O[C@H](CO)[C@@H](O)[C@@H]2F)cc1I", "note": "[FIALURIDINE]", "Hepatotoxicity": "HH: Evidence of human hepatotoxicity"}, {"smiles": "O=C(COc1ccc(Cl)cc1)N1CCN(Cc2ccc3c(c2)OCO3)CC1", "note": "[FIPEXIDE]", "Hepatotoxicity": "HH: Evidence of human hepatotoxicity"}, {"smiles": "CC(=O)O.O=C(NCC1CCCCN1)c1cc(OCC(F)(F)F)ccc1OCC(F)(F)F", "note": "(centres undefined) [FLECAINIDE ACETATE]", "Hepatotoxicity": "HH: Evidence of human hepatotoxicity"}, {"smiles": "O=c1[nH]c(=O)n([C@H]2C[C@H](O)[C@@H](CO)O2)cc1F", "note": "[FLOXURIDINE]", "Hepatotoxicity": "HH: Evidence of human hepatotoxicity"}, {"smiles": "OC(Cn1cncn1)(Cn1cncn1)c1ccc(F)cc1F", "note": "[FLUCONAZOLE]", "Hepatotoxicity": "HH: Evidence of human hepatotoxicity"}, {"smiles": "Nc1nc(=O)[nH]cc1F", "note": "[FLUCYTOSINE]", "Hepatotoxicity": "HH: Evidence of human hepatotoxicity"}, {"smiles": "CC(=O)OCC(=O)[C@@]1(O)CC[C@H]2[C@@H]3CCC4=CC(=O)CC[C@]4(C)[C@@]3(F)[C@@H](O)C[C@@]21C", "note": "[FLUDROCORTISONE ACETATE]", "Hepatotoxicity": "NE: No evidence of hepatotoxicity in any species"}, {"smiles": "O=C(O)c1ccccc1Nc1cccc(C(F)(F)F)c1", "note": "[FLUFENAMIC ACID]", "Hepatotoxicity": "WE: Weak evidence (<10 case reports) of human hepatotoxicity"}, {"smiles": "CCOC(=O)c1ncn2c1CN(C)C(=O)c1cc(F)ccc1-2", "note": "[FLUMAZENIL]", "Hepatotoxicity": "NE: No evidence of hepatotoxicity in any species"}, {"smiles": "C[C@H](C(=O)O)c1ccc2oc(-c3ccc(F)cc3)nc2c1", "note": "[FLUNOXAPROFEN]", "Hepatotoxicity": "WE: Weak evidence (<10 case reports) of human hepatotoxicity"}, {"smiles": "O=c1[nH]cc(F)c(=O)[nH]1", "note": "[FLUOROURACIL]", "Hepatotoxicity": "HH: Evidence of human hepatotoxicity"}, {"smiles": "CC(C(=O)O)c1ccc(-c2ccccc2)c(F)c1", "note": "(centres undefined) [FLURBIPROFEN]", "Hepatotoxicity": "HH: Evidence of human hepatotoxicity"}, {"smiles": "CC(C)C(=O)Nc1ccc([N+](=O)[O-])c(C(F)(F)F)c1", "note": "[FLUTAMIDE]", "Hepatotoxicity": "HH: Evidence of human hepatotoxicity"}, {"smiles": "COCCCC/C(=N\\OCCN)c1ccc(C(F)(F)F)cc1", "note": "[FLUVOXAMINE]", "Hepatotoxicity": "HH: Evidence of human hepatotoxicity"}, {"smiles": "Nc1nc2ncc(CNc3ccc(C(=O)N[C@@H](CCC(=O)O)C(=O)O)cc3)nc2c(=O)[nH]1", "note": "[FOLIC ACID]", "Hepatotoxicity": "NE: No evidence of hepatotoxicity in any species"}, {"smiles": "O=C(O)P(=O)(O)O", "note": "[FOSCARNET]", "Hepatotoxicity": "NE: No evidence of hepatotoxicity in any species"}, {"smiles": "O=C1OCCN1/N=C/c1ccc([N+](=O)[O-])o1", "note": "[FURAZOLIDONE]", "Hepatotoxicity": "HH: Evidence of human hepatotoxicity"}, {"smiles": "NCC1(CC(=O)O)CCCCC1", "note": "[GABAPENTIN]", "Hepatotoxicity": "NE: No evidence of hepatotoxicity in any species"}, {"smiles": "CC[N+](CC)(CC)CCOc1cccc(OCC[N+](CC)(CC)CC)c1OCC[N+](CC)(CC)CC.[I-].[I-].[I-]", "note": "[GALLAMINE TRIETHIODIDE]", "Hepatotoxicity": "NE: No evidence of hepatotoxicity in any species"}, {"smiles": "COc1c(N2CCNC(C)C2)c(F)cc2c(=O)c(C(=O)O)cn(C3CC3)c12", "note": "(centres undefined) [GATIFLOXACIN]", "Hepatotoxicity": "WE: Weak evidence (<10 case reports) of human hepatotoxicity"}, {"smiles": "Cc1ccc(C)c(OCCCC(C)(C)C(=O)O)c1", "note": "[GEMFIBROZIL]", "Hepatotoxicity": "HH: Evidence of human hepatotoxicity"}, {"smiles": "O=C(OCC(O)CO)c1ccccc1Nc1ccnc2cc(Cl)ccc12", "note": "(centres undefined) [GLAFENINE]", "Hepatotoxicity": "HH: Evidence of human hepatotoxicity"}, {"smiles": "Cc1ccc(S(=O)(=O)NC(=O)NN2CC3CCCC3C2)cc1", "note": "(centres undefined) [GLICLAZIDE]", "Hepatotoxicity": "WE: Weak evidence (<10 case reports) of human hepatotoxicity"}, {"smiles": "CCC1=C(C)CN(C(=O)NCCc2ccc(S(=O)(=O)NC(=O)N[C@H]3CC[C@H](C)CC3)cc2)C1=O", "note": "[GLIMEPIRIDE]", "Hepatotoxicity": "WE: Weak evidence (<10 case reports) of human hepatotoxicity"}, {"smiles": "N[C@H]1C(O)O[C@H](CO)[C@@H](O)[C@@H]1O", "note": "(some centres undefined) [GLUCOSAMINE]", "Hepatotoxicity": "AH: Evidence for animal hepatotoxicity but not tested in humans"}, {"smiles": "CCC1(c2ccccc2)CCC(=O)NC1=O", "note": "(centres undefined) [GLUTETHIMIDE]", "Hepatotoxicity": "HH: Evidence of human hepatotoxicity"}, {"smiles": "Cc1c(F)c(N2CCNC(C)C2)cc2c1c(=O)c(C(=O)O)cn2C1CC1", "note": "(centres undefined) [GREPAFLOXACIN]", "Hepatotoxicity": "HH: Evidence of human hepatotoxicity"}, {"smiles": "COC1=CC(=O)C[C@@H](C)[C@]12Oc1c(Cl)c(OC)cc(OC)c1C2=O", "note": "[GRISEOFULVIN]", "Hepatotoxicity": "HH: Evidence of human hepatotoxicity"}, {"smiles": "N=C(N)NCCN1CCCCCCC1.N=C(N)NCCN1CCCCCCC1.O=S(=O)(O)O", "note": "[GUANETHIDINE SULFATE]", "Hepatotoxicity": "HH: Evidence of human hepatotoxicity"}, {"smiles": "ClC(Cl)=C(Cl)C(Cl)=C(Cl)Cl", "note": "[HEXACHLOROBUTADIENE]", "Hepatotoxicity": "AH: Evidence for animal hepatotoxicity but not tested in humans"}, {"smiles": "Oc1c(Cl)cc(Cl)c(Cl)c1Cc1c(O)c(Cl)cc(Cl)c1Cl", "note": "[HEXACHLOROPHENE]", "Hepatotoxicity": "HH: Evidence of human hepatotoxicity"}, {"smiles": "CCN(CC)CCNc1ccc(CO)c2sc3ccccc3c(=O)c12", "note": "[HYCANTHONE]", "Hepatotoxicity": "HH: Evidence of human hepatotoxicity"}, {"smiles": "NN", "note": "[HYDRAZINE]", "Hepatotoxicity": "AH: Evidence for animal hepatotoxicity but not tested in humans"}, {"smiles": "NS(=O)(=O)c1cc2c(cc1Cl)NCNS2(=O)=O", "note": "[HYDROCHLOROTHIAZIDE]", "Hepatotoxicity": "HH: Evidence of human hepatotoxicity"}, {"smiles": "NC(=O)NO", "note": "[HYDROXYUREA]", "Hepatotoxicity": "HH: Evidence of human hepatotoxicity"}, {"smiles": "CC(C)Cc1ccc(CC(=O)O)cc1", "note": "[IBUFENAC]", "Hepatotoxicity": "HH: Evidence of human hepatotoxicity"}, {"smiles": "CC(C)Cc1ccc(C(C)C(=O)O)cc1", "note": "(centres undefined) [IBUPROFEN]", "Hepatotoxicity": "WE: Weak evidence (<10 case reports) of human hepatotoxicity"}, {"smiles": "CC(=O)[C@]1(O)Cc2c(O)c3c(c(O)c2[C@@H](O[C@H]2C[C@H](N)[C@H](O)[C@H](C)O2)C1)C(=O)c1ccccc1C3=O.Cl", "note": "[IDARUBICIN HYDROCHLORIDE]", "Hepatotoxicity": "NE: No evidence of hepatotoxicity in any species"}, {"smiles": "O=c1[nH]c(=O)n([C@H]2C[C@H](O)[C@@H](CO)O2)cc1I", "note": "[IDOXURIDINE]", "Hepatotoxicity": "HH: Evidence of human hepatotoxicity"}, {"smiles": "O=P1(NCCCl)OCCCN1CCCl", "note": "(centres undefined) [IFOSFAMIDE]", "Hepatotoxicity": "HH: Evidence of human hepatotoxicity"}, {"smiles": "CN(C)CCCN1c2ccccc2CCc2ccccc21.Cl", "note": "[IMIPRAMINE HYDROCHLORIDE]", "Hepatotoxicity": "HH: Evidence of human hepatotoxicity"}, {"smiles": "Nc1cc(-c2ccncc2)c[nH]c1=O", "note": "[INAMRINONE]", "Hepatotoxicity": "HH: Evidence of human hepatotoxicity"}, {"smiles": "CC1(c2ccccc2)Cc2cc(OCC(=O)O)c(Cl)c(Cl)c2C1=O", "note": "(centres undefined) [INDACRINONE]", "Hepatotoxicity": "HH: Evidence of human hepatotoxicity"}, {"smiles": "COc1ccc2c(c1)c(CC(=O)O)c(C)n2C(=O)c1ccc(Cl)cc1", "note": "[INDOMETHACIN]", "Hepatotoxicity": "HH: Evidence of human hepatotoxicity"}, {"smiles": "O[C@H]1[C@H](O)[C@@H](O)[C@H](O)[C@@H](O)[C@H]1O", "note": "[INOSITOL]", "Hepatotoxicity": "NE: No evidence of hepatotoxicity in any species"}, {"smiles": "C[C@H](O)C(=O)Nc1c(I)c(C(=O)NC(CO)CO)c(I)c(C(=O)NC(CO)CO)c1I", "note": "[IOPAMIDOL]", "Hepatotoxicity": "HH: Evidence of human hepatotoxicity"}, {"smiles": "CC(C)NNC(=O)c1ccncc1", "note": "[IPRONIAZID]", "Hepatotoxicity": "HH: Evidence of human hepatotoxicity"}, {"smiles": "CCCCC1=NC2(CCCC2)C(=O)N1Cc1ccc(-c2ccccc2-c2nnn[nH]2)cc1", "note": "[IRBESARTAN]", "Hepatotoxicity": "WE: Weak evidence (<10 case reports) of human hepatotoxicity"}, {"smiles": "Cc1cc(C(=O)NNCc2ccccc2)no1", "note": "[ISOCARBOXAZID]", "Hepatotoxicity": "WE: Weak evidence (<10 case reports) of human hepatotoxicity"}, {"smiles": "NNC(=O)c1ccncc1", "note": "[ISONIAZID]", "Hepatotoxicity": "HH: Evidence of human hepatotoxicity"}, {"smiles": "O=C(O)c1ccncc1", "note": "[ISONICOTINIC ACID]", "Hepatotoxicity": "NE: No evidence of hepatotoxicity in any species"}, {"smiles": "CC(C)NCC(O)c1ccc(O)c(O)c1.Cl", "note": "(centres undefined) [ISOPROTERENOL HYDROCHLORIDE]", "Hepatotoxicity": "NE: No evidence of hepatotoxicity in any species"}, {"smiles": "O=[N+]([O-])O[C@H]1CO[C@H]2[C@@H]1OC[C@H]2O[N+](=O)[O-]", "note": "[ISOSORBIDE DINITRATE]", "Hepatotoxicity": "NE: No evidence of hepatotoxicity in any species"}, {"smiles": "CC1=C(/C=C/C(C)=C/C=C/C(C)=C\\C(=O)O)C(C)(C)CCC1", "note": "[ISOTRETINOIN]", "Hepatotoxicity": "HH: Evidence of human hepatotoxicity"}, {"smiles": "Cc1cc(NC(=O)C2=C(O)c3ccccc3S(=O)(=O)N2C)no1", "note": "[ISOXICAM]", "Hepatotoxicity": "NE: No evidence of hepatotoxicity in any species"}, {"smiles": "CC(COc1ccccc1)NC(C)C(O)c1ccc(O)cc1.Cl", "note": "(centres undefined) [ISOXSUPRINE HYDROCHLORIDE]", "Hepatotoxicity": "NE: No evidence of hepatotoxicity in any species"}, {"smiles": "CC(=O)N1CCN(c2ccc(OCC3COC(Cn4ccnc4)(c4ccc(Cl)cc4Cl)O3)cc2)CC1", "note": "(centres undefined) [KETOCONAZOLE]", "Hepatotoxicity": "HH: Evidence of human hepatotoxicity"}, {"smiles": "CC(C(=O)O)c1cccc(C(=O)c2ccccc2)c1", "note": "(centres undefined) [KETOPROFEN]", "Hepatotoxicity": "NE: No evidence of hepatotoxicity in any species"}, {"smiles": "NC(CO)(CO)CO.O=C(c1ccccc1)c1ccc2n1CCC2C(=O)O", "note": "(centres undefined) [KETOROLAC TROMETHAMINE]", "Hepatotoxicity": "HH: Evidence of human hepatotoxicity"}, {"smiles": "CN1CCC(=C2c3ccccc3CC(=O)c3sccc32)CC1", "note": "[KETOTIFEN]", "Hepatotoxicity": "NE: No evidence of hepatotoxicity in any species"}]}]}
